Measured values: publication PMC10385636, “Inhibition Mechanism of Chitooligosaccharide-Polyphenol Conjugates toward Polyphenoloxidase from Shrimp Cephalothorax” (Molecules, 2023)

Tested on: T1, PPO (polyphenoloxidase from Pacific white shrimp cephalothorax)
T1 construct: gene proPO; crude native extract of cephalothorax powder; not purified; isoenzyme not identified (hemocyanin-derived activity not excluded); docking model 3WKY is not the assayed protein
Assay: dopachrome absorbance at […] nm, Lineweaver-Burk
Type: biochemical, Penaeus vannamei
Settings: no inhibitor (0 mg/mL); crude extract; pH 6.0, 45 °C per activity assay; unit as in table footnote but substrate was dosed 2.5-25 mM, so unit is doubtful (possibly mM)

N[C@@H](Cc1ccc(O)c(O)c1)C(=O)O [L-DOPA]
Concentration (mg/mL) / 0: 7.0695 mg/mL
